The source of these data is ChEMBL document CHEMBL1150976, “The selectivity of protein kinase inhibitors: a further update” (Biochem J, 2007).

For assay [1], the target named is T1, 3-phosphoinositide-dependent protein kinase 1 (Homo sapiens) (UniProt O15530).
T1 sequence (whole entry): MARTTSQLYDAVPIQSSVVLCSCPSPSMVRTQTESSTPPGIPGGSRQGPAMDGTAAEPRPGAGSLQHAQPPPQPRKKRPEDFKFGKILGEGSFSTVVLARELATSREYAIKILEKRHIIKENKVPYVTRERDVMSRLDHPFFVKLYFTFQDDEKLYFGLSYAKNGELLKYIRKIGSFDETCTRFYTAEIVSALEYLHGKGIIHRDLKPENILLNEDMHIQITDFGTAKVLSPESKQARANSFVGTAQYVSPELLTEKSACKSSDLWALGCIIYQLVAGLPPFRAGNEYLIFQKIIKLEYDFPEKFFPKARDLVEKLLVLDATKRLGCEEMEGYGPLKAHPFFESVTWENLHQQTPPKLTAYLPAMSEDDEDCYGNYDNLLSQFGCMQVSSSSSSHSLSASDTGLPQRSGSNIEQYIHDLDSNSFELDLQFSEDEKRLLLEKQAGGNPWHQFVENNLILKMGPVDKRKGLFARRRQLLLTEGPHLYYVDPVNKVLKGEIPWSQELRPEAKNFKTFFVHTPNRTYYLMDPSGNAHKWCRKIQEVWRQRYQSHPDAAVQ
Nature of the assay: Percentage PDK1 activity remaining in the presence of 25uM inhibitor.

The target of assay [2] is Cyclin-dependent kinase 2/cyclin A (Homo sapiens, UniProt P24941). The assay is described as follows: Inhibition of CDK2-cyclinA in the presence of 20uM ATP. It is filed as protein-complex assay.
In assay [3] the target is Serine/threonine-protein kinase pim-2 (Homo sapiens, UniProt Q9P1W9). The assay is described as follows: Percentage PIM2 activity remaining in the presence of 2uM inhibitor.
Sequence of Serine/threonine-protein kinase pim-2 (Q9P1W9 whole entry, looked up): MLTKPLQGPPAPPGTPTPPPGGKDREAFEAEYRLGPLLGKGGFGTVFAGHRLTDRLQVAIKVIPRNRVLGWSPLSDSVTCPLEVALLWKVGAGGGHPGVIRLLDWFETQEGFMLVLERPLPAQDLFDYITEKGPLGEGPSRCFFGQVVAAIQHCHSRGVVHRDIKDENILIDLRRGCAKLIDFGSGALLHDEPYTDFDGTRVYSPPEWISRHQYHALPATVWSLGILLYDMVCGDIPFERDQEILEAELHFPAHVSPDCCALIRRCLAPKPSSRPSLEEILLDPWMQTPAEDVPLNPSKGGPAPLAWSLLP
Assay [4] concerns the target Serine/threonine-protein kinase Nek7 (Homo sapiens) (UniProt Q8TDX7). The assay is described as follows: Percentage NEK7 activity remaining in the presence of 2uM inhibitor.
Assay [5] concerns the target Mitogen-activated protein kinase 3 (Homo sapiens) (UniProt P27361). The assay is described as follows: Percentage ERK1 activity remaining in the presence of 2uM inhibitor.
The target in assay [6] is Proto-oncogene tyrosine-protein kinase Src (Gallus gallus) (UniProt P00523). The assay is described as follows: Percentage Src activity remaining in the presence of 2uM inhibitor.
Assay [7] deals with Serine/threonine-protein kinase N2 (Homo sapiens) (UniProt Q16513). The assay is described as follows: Percentage PRK2 activity remaining in the presence of 2uM inhibitor.
Sequence of Serine/threonine-protein kinase N2 (Homo sapiens) (Q16513 whole entry, looked up): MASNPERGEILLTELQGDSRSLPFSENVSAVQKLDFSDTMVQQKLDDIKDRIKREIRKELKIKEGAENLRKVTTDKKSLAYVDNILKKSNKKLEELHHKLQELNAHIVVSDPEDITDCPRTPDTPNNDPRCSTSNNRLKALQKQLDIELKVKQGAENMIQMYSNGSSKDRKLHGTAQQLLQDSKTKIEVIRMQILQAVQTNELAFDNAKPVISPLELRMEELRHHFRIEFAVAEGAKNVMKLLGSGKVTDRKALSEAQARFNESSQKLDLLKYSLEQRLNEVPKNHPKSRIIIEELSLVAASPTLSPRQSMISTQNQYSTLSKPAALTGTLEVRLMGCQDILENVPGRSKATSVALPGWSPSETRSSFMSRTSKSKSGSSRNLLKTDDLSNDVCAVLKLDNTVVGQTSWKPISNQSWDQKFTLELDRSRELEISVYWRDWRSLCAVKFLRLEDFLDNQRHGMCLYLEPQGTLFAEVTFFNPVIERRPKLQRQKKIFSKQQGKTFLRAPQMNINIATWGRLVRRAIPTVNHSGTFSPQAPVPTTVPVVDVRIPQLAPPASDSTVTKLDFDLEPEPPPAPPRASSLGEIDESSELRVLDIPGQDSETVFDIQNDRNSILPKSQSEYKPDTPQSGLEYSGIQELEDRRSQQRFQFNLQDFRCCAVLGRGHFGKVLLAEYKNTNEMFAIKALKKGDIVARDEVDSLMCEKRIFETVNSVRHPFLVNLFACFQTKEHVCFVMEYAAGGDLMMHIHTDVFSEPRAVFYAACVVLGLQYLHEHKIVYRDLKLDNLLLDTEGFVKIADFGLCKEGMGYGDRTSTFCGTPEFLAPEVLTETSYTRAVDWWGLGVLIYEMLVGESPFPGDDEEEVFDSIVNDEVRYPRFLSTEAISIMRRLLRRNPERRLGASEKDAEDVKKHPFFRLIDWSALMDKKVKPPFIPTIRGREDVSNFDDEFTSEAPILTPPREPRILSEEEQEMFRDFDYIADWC
Assay [8] has as its target Mitogen-activated protein kinase 11 (Homo sapiens) (UniProt Q15759). Nature of the assay: Percentage p38beta activity remaining in the presence of 2uM inhibitor.
The target of assay [9] is Serine/threonine-protein kinase Nek6 (Homo sapiens) (UniProt Q9HC98). The assay is described as follows: Percentage NEK6 activity remaining in the presence of 2uM inhibitor.
Sequence of Serine/threonine-protein kinase Nek6 (Homo sapiens) (Q9HC98 whole entry): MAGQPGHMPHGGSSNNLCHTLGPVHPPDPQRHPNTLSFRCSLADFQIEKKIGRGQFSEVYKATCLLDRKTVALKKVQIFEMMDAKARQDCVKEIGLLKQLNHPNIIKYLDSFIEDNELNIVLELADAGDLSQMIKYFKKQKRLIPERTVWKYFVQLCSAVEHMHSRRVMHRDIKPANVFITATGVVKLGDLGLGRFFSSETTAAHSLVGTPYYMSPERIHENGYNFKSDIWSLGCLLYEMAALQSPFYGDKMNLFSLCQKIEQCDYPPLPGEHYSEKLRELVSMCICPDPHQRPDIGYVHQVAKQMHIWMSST
Assay [10] has as its target Ribosomal protein S6 kinase alpha-5 (Homo sapiens) (UniProt O75582). Nature of the assay: Percentage MSK1 activity remaining in the presence of 2uM inhibitor.
For assay [11], the target named is Ribosomal protein S6 kinase beta-1 (Homo sapiens, UniProt P23443). Nature of the assay: Percentage S6K1 activity remaining in the presence of 2uM inhibitor.
Sequence of Ribosomal protein S6 kinase beta-1 (P23443 whole entry, looked up): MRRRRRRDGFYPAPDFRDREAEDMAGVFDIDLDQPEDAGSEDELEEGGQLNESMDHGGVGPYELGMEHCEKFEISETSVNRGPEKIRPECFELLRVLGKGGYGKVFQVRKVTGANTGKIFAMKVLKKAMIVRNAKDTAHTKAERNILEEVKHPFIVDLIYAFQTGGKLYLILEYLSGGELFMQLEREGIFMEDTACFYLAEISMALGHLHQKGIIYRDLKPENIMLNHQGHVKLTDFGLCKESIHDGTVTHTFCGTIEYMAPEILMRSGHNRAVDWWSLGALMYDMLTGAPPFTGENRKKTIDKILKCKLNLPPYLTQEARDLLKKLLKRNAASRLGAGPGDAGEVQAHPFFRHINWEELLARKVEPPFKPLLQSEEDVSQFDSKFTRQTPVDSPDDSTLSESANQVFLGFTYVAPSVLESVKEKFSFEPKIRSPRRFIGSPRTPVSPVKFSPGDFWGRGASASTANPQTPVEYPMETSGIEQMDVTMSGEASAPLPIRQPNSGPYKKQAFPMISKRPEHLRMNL
In assay [12] the target is Mitogen-activated protein kinase 11 (Homo sapiens) (UniProt Q15759). The assay is described as follows: Percentage p38beta activity remaining in the presence of 3uM inhibitor.
Sequence of Mitogen-activated protein kinase 11 (Homo sapiens) (Q15759 whole entry): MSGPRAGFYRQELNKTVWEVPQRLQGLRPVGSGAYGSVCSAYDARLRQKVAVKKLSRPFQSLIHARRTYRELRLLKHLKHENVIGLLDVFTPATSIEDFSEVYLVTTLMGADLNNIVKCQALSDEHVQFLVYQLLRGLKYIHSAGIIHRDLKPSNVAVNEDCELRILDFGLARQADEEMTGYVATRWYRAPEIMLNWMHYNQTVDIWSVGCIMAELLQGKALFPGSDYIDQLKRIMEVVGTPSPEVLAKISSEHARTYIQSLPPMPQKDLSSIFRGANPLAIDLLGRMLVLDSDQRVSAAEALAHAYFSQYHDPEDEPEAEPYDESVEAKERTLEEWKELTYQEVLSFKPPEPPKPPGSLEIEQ
The target of assay [13] is T2, Serine/threonine-protein kinase 3 (Homo sapiens) (UniProt Q13188).
T2 sequence (whole entry): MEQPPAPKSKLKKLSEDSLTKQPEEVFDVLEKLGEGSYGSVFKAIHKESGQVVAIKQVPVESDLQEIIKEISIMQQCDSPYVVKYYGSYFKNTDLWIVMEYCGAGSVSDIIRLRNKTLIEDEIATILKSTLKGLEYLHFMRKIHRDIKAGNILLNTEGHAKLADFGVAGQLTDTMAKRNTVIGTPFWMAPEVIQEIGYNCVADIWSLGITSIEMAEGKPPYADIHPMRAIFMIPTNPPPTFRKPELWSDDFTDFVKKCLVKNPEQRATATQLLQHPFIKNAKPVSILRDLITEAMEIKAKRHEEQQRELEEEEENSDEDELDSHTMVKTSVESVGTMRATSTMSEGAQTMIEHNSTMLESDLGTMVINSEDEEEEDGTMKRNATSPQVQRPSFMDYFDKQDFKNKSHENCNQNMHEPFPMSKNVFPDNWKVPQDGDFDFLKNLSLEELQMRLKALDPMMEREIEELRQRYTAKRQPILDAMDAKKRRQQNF
Nature of the assay: Percentage MST2 activity remaining in the presence of 3uM inhibitor.

Assay [14] addresses MAP kinase-activated protein kinase 3 (Homo sapiens) (UniProt Q16644). Nature of the assay: Percentage MAPKAPK3 activity remaining in the presence of 3uM inhibitor.
For assay [15], the target named is Mitogen-activated protein kinase 14 (Homo sapiens, UniProt Q16539). Nature of the assay: Percentage p38alpha activity remaining in the presence of 3uM inhibitor.
Sequence of Mitogen-activated protein kinase 14 (Q16539 whole entry): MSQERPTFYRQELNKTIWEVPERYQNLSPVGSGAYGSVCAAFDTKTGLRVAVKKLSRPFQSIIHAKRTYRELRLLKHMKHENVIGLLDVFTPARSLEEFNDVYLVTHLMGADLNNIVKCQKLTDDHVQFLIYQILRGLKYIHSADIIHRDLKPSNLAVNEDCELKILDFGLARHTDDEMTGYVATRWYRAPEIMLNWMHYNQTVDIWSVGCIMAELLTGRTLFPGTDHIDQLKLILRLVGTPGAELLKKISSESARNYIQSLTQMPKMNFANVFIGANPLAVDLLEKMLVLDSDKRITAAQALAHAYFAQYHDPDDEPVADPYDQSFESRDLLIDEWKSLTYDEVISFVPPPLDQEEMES
Assay [16] concerns the target T3, Serine/threonine-protein kinase BRSK2 (Homo sapiens) (UniProt Q8IWQ3).
T3 sequence (whole entry): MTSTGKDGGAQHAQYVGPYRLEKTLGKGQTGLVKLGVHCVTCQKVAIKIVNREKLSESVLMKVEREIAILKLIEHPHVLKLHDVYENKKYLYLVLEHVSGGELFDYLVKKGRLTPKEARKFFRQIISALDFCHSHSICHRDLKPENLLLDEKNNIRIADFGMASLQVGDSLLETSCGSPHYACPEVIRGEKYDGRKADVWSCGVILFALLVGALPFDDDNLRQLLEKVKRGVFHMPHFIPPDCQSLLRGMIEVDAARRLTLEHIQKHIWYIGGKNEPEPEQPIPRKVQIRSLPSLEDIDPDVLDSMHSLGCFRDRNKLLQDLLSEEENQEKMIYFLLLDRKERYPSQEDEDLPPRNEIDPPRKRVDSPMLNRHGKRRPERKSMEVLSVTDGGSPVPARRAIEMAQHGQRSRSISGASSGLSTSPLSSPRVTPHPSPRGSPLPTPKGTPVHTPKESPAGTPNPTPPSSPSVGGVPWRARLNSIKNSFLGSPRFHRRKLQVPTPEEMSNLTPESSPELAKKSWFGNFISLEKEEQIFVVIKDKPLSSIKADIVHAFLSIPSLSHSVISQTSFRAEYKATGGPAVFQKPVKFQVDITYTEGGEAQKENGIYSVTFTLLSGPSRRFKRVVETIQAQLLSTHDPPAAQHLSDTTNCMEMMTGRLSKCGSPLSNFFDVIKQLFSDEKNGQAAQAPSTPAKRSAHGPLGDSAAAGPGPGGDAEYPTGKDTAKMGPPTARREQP
Nature of the assay: Percentage BRSK2 activity remaining in the presence of 3uM inhibitor.

Assay [17] has as its target Mitogen-activated protein kinase 10 (Homo sapiens) (UniProt P53779). The assay is described as follows: Percentage JNK3 activity remaining in the presence of 3uM inhibitor.

Sequence of MAP kinase-activated protein kinase 3 (Homo sapiens) (Q16644 whole entry, looked up): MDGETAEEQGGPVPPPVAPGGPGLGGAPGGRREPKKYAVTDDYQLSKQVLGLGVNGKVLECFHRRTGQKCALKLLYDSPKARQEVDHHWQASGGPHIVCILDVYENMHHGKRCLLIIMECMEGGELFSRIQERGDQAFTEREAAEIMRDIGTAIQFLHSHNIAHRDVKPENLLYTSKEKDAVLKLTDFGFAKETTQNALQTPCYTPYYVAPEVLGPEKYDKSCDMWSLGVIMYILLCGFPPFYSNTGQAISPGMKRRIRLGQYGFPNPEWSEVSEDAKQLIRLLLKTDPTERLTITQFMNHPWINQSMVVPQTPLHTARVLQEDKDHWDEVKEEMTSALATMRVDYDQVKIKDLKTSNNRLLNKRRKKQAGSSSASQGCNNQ
Sequence of Ribosomal protein S6 kinase alpha-5 (Homo sapiens) (O75582 whole entry, looked up): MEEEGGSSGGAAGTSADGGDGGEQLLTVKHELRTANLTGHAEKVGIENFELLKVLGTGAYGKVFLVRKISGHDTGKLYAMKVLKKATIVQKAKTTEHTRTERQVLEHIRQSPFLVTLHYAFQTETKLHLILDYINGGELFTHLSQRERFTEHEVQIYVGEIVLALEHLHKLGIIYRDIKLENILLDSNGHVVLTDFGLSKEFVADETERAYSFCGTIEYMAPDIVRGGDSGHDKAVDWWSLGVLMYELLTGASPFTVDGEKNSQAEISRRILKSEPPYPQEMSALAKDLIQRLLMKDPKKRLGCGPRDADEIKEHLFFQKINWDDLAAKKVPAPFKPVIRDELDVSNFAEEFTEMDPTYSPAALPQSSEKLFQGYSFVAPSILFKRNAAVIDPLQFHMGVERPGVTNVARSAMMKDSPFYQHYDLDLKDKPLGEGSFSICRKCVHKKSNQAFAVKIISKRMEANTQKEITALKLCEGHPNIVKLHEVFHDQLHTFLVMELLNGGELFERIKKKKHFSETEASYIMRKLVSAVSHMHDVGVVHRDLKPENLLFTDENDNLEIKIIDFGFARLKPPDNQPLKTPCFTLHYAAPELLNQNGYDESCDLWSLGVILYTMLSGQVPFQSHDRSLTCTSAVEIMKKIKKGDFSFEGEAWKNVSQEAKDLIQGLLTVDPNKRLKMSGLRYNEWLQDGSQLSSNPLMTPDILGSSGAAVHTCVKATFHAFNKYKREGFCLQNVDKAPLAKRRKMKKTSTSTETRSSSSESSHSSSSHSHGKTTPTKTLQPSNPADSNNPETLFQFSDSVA
Sequence of Mitogen-activated protein kinase 3 (Homo sapiens) (P27361 whole entry): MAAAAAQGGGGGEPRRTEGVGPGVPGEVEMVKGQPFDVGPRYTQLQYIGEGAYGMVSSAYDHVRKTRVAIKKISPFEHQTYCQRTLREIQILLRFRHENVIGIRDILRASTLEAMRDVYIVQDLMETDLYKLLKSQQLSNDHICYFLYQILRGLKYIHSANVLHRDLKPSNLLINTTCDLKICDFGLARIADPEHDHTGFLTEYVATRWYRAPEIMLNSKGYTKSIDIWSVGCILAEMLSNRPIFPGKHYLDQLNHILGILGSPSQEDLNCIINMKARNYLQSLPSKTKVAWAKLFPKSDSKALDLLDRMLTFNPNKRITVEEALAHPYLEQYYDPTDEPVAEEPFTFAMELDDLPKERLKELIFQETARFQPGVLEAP
Sequence of Mitogen-activated protein kinase 10 (Homo sapiens) (P53779 whole entry): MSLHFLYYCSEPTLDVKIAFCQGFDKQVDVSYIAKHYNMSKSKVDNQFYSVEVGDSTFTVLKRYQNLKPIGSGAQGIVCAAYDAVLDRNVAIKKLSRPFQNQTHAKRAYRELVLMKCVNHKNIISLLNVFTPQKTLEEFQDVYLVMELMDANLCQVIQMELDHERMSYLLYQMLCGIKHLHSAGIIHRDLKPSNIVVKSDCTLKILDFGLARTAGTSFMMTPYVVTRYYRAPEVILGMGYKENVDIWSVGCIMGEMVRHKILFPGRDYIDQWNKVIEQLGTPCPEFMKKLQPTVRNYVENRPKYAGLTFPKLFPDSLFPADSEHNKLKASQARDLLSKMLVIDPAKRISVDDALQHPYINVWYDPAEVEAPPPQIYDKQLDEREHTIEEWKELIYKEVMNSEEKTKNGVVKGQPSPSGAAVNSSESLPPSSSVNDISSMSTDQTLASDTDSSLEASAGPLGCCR

As for `NCCNS(=O)(=O)c1ccc(Cl)c2ccncc12`, the Activity in assay [1] turned out to be 83%.
On to `CC(C)[C@H](CO)Nc1nc(Nc2cccc(Cl)c2)c2ncn(C(C)C)c2n1` [PURVALANOLA], for which, in assay [2], the IC50 is 30 nM (antagonist).
As for `Cn1cc(C2=C(c3ccc(Cl)cc3Cl)C(=O)NC2=O)c2ccccc21`, the Activity amounted to 81% in assay [3]; 85% in assay [4]; 99% in [5]; 83% in assay [6]; 81% in assay [7]; 85% in [8]. For the same compound, the Activity in assay [9] came to 74%; in assay [10], 69%; in assay [11] it was 86%.
With `Cc1ccc(-c2c(C(=O)CF)n(CCCO)c3ncnc(N)c23)cc1`, the Activity in [12] came out at 85%; in assay [13], 76%; in assay [14], 92%; in [15], 72%; in assay [16], 53%; in assay [17], 89%.

One may read the IC50 as the midpoint of a concentration-inhibition curve.
